# Data reported in publication PMC11011439, “Influence of Molecular Design on the Tumor Targeting and Biodistribution of PSMA-Binding Tracers Labeled with Technetium-99m” (International Journal of Molecular Sciences, 2024).
# Marks after values point to notes of the source that are not given here.
# Key:
# [1] = Stability of the [99mTc]Tc-maG3 complex in PBS and under cysteine challenge (radio-HPLC); format: physicochemical; conditions: room temperature, 1 h
# Description: The iTLC data were cross-validated using radio-HPLC analysis, performed using a Hitachi Chromaster HPLC system with a radioactivity detector and Phenomenex Luna® C18 column (100 Å; 150 × 4.6 mm; 5 µm) at room temperature (20 °C), in the following conditions: solvent A: 0.1% trifluoroacetic acid (TFA) in H2O, solvent B: 0.1% TFA in acetonitrile, flow rate: 1 mL/min. For identity and purity analysis of [^99mTc]Tc-BQ0411 and [^99mTc]Tc-BQ0412, the method with a gradient from 5 to 60% solvent B over 20 min was used.
# To evaluate the chemical stability of the [^99mTc]Tc-maG3 complex, fractions of radiolabeled conjugates (10 µL, 0.25 µg) were incubated with a 300× molar excess of cysteine or with PBS at room temperature for 1 h. The test was run in triplicate.
# [2] = Octanol/water distribution coefficient (LogD); format: physicochemical; conditions: n-octanol / Milli-Q water
# Description: The LogD was determined experimentally based on the procedure described earlier. Briefly, the radiolabeled compound of interest was added to a LoBind Eppendorf tube (Eppendorf, Hamburg, Germany) containing Milli-Q water (500 μL) and n-octanol (500 μL), and the mixture was vortexed and centrifuged. Thereafter, three fractions from each phase were collected and the activity was measured using a gamma counter. The LogD was calculated by dividing the average activity measured in octanol by the average activity measured in water.
# [3] = target: T1, PSMA (Homo sapiens, UniProt Q04609); test: In vitro binding specificity (saturation with non-labeled PSMA-11) on PC3-pip cells; conditions: 2 nM tracer, 250-fold molar excess of PSMA-11, 1 h, 37 °C
# T1 construct: expressed in transfected cells; host or cells: PC3-pip cells (from Prof. Martin G. Pomper, Johns Hopkins University)
# Description: For the in vitro binding specificity test, approximately 8 × 10^5 of PC3-pip cells per well were seeded in 6-well plates 24 h before the experiment. Cells in three control wells were pre-saturated with a 250-fold excess of non-labeled PSMA-11 15 min before the addition of radiotracers, while the second set was treated with complete media. After 15 min of incubation at room temperature, [^99mTc]Tc-labeled radioligands were added to all wells to reach a concentration of 2 nM. After one hour of incubation at 37 °C, the cells were washed with PBS solution, detached, and collected. Cell-associated activity was measured using a gamma counter and presented as the percentage of added activity.
# [4] = target: T1, PSMA; test: Real-time binding kinetics on living PC3-pip cells (LigandTracer Yellow); conditions: 5 nM tracer, 1:2 interaction model
# Description: The binding kinetics of [^99mTc]Tc-labeled BQ0411, BQ0412, and BQ0413 were measured in real time using LigandTracer Yellow Instruments (Ridgeview Instruments AB, Uppsala, Sweden) on PC3-pip cells, as described earlier. The activity binding was recorded at 5 nM on the radiolabeled tracers for 150 min. After measuring the binding kinetics, the medium containing the labeled tracer was replaced with fresh medium, and the dissociation was monitored over 7 h. […]
# [5] = system: PC3-pip cells; test: Cellular processing (internalization) during continuous incubation; format: cell-based; conditions: 2 nM, 37 °C
# Description: To evaluate the cellular processing of [^99mTc]Tc-labeled BQ0411 and BQ0412, PC3-pip cells were incubated with the radiolabeled tracer (2 nM), and at predetermined time points (1, 2, 4, and 8 h), cells were treated with 0.5 mL of 4 M urea solution in a 0.2 M glycine buffer, pH 2.5, for 5 min on ice. After that, the acidic supernatant was collected, and this fraction was considered to be the membrane-bound activity. To lyse the cells, 0.5 mL of 1 M sodium hydroxide solution was added and incubated at 37 °C for at least 20 min. The alkaline-containing solution was collected, and the basic fraction was considered to be the internalized activity.
# [6] = Biodistribution in NMRI mice; format: in vivo; conditions: for activity in carcass / activity in intestines with content / uptake in blood / uptake in kidney / uptake in liver / uptake in lung / uptake in salivary glands / uptake in spleen / uptake in stomach: 40 pmol/mouse iv
# Description: Four NMRI mice were intravenously injected with 40 pmol of the radiotracer (60 kBq, the mass of the injected compound was adjusted with an unlabeled tracer). The mice were euthanized with a lethal intraperitoneal injection of ketamine/xylazine, followed by exsanguination at 3 and 24 h post-injection (pi). The organs of interest were collected, weighed, and measured for their activity content using a gamma counter. The uptake activity in organs was calculated as the percentage of injected activity per gram (%IA/g) for the blood, salivary glands, lungs, liver, spleen, stomach, and kidneys and as %IA for the remaining carcass and the rest of the intestines with content.
# [7] = system: PSMA-expressing prostate cancer xenografts (PC3-pip); test: Biodistribution and tumor targeting in PC3-pip tumor-bearing mice; format: in vivo, BALB/c nu/nu mice; conditions: 3 h pi
# Description: PSMA-expressing prostate cancer xenografts were implanted in BALB/c nu/nu mice by subcutaneous injection of PC3-pip cell suspension in PBS (10^7 cells/animal in 100 µL). The average tumor weight was 0.3 ± 0.2 g at the time of the experiment. Four mice per data point were used. Mice were intravenously injected with 5 nmol of the radiotracer (60 kBq, the mass of the injected compound was adjusted with an unlabeled tracer). The mice were euthanized 3 h pi, and the samples were treated as described above.
# T1 sequence (Q04609 whole entry): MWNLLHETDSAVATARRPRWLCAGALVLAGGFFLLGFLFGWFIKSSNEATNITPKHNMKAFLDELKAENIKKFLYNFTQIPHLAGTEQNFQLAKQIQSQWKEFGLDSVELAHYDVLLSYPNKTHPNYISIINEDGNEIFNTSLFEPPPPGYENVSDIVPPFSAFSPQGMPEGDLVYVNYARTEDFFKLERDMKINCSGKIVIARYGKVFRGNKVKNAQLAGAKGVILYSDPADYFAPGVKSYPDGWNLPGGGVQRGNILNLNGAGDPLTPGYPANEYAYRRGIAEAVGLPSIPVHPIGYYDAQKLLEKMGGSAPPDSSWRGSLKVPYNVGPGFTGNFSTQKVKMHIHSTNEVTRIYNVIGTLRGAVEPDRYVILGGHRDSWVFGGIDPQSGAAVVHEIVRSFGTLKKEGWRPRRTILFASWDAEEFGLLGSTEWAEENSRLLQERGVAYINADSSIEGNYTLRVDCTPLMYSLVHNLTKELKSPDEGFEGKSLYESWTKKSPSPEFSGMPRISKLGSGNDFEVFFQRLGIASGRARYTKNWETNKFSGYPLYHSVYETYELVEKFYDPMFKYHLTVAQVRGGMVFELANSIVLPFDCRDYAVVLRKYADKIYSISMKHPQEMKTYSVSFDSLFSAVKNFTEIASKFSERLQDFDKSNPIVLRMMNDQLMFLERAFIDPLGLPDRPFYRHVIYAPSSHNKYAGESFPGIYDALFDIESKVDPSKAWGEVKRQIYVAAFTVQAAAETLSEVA
structure (smiles),measurement,setting,value
CC(=O)NC(CCCCNC(=O)CNC(=O)C[N]1C(=O)C[N]2C(=O)C[N]3C(=O)C[S][99Tc-]132=[O])C(=O)NCCCCCCCC(=O)NC(Cc1ccc(O)cc1)C(=O)NC(Cc1ccc2ccccc2c1)C(=O)NCCCCC(NC(=O)NC(CCC(=O)O)C(=O)O)C(=O)O (stereo not drawn) [[^99mTc]Tc-BQ0411],stability in the presence of cysteine,[1]; 300-fold molar excess of cysteine,stable
same,stability during incubation in PBS,[1]; PBS,stable
same,logD (octanol–water distribution coefficient),[2],−2.3 ± 0.1
same,binding to PC3-pip cells after pre-treatment with excess non-labeled PSMA-11,[3],significantly (p ˂ 0.0001) decreased
same,ka1,[4],24000 M⁻¹ s⁻¹
same,ka2,[4],67000 M⁻¹ s⁻¹
same,kd1,[4],1.4e-05 s⁻¹
same,kd2,[4],2e-05 s⁻¹
same,internalized activity (of cell-associated activity),[5]; 4 h of continuous incubation,44 ± 1%
same,internalized activity (of cell-associated activity),[5]; after 4 h (8 h of continuous incubation),44.2 ± 0.7%
same,activity in carcass,[6]; 3 h pi,"6.4 ± 0.8 *^,a,b %IA/sample"
same,activity in intestines with content,[6]; 3 h pi,"43 ± 6 *^,a,b %IA/sample"
same,uptake in blood,[6]; 3 h pi,"1.4 ± 0.7 *^,a %IA/g"
same,uptake in kidney,[6]; 3 h pi,"129 ± 22 *^,a,b %IA/g"
same,uptake in liver,[6]; 3 h pi,"0.8 ± 0.1 *^,a %IA/g"
same,uptake in lung,[6]; 3 h pi,"0.8 ± 0.1 *^,a %IA/g"
same,uptake in salivary glands,[6]; 3 h pi,"0.5 ± 0.1 *^,a,b %IA/g"
same,uptake in spleen,[6]; 3 h pi,"0.38 ± 0.07 *^,b %IA/g"
same,uptake in stomach,[6]; 3 h pi,"0.42 ± 0.07 *^,b %IA/g"
same,activity in carcass,[6]; 24 h pi,0.21 ± 0.01 ^b %IA/sample
same,activity in intestines with content,[6]; 24 h pi,0.3 ± 0.2 %IA/sample
same,uptake in blood,[6]; 24 h pi,0.027 ± 0.002 ^b %IA/g
same,uptake in kidney,[6]; 24 h pi,3.9 ± 0.6 ^b %IA/g
same,uptake in liver,[6]; 24 h pi,0.032 ± 0.004 ^b %IA/g
same,uptake in lung,[6]; 24 h pi,0.019 ± 0.005 ^b %IA/g
same,uptake in salivary glands,[6]; 24 h pi,0.022 ± 0.005 ^b %IA/g
same,uptake in spleen,[6]; 24 h pi,0.015 ± 0.002 %IA/g
same,uptake in stomach,[6]; 24 h pi,0.06 ± 0.02 ^b %IA/g
same,activity remaining in the body,"[6]; 3 h pi, excluding activity in the intestines with content",40–50 % from injected
same,washout of activity from kidneys,[6]; 24 h pi compared to 3 h pi,97%
same,activity in carcass,[7]; 5 nmol/mouse iv,3.5 ± 0.9 %IA/sample
same,activity in intestines with content,[7]; 5 nmol/mouse iv,"44 ± 5 ^a,b %IA/sample"
same,uptake in blood,[7]; 5 nmol/mouse iv,1.0 ± 0.4 ^b %IA/g
same,uptake in bone,[7]; 5 nmol/mouse iv,0.20 ± 0.06 %IA/g
same,uptake in kidney,[7]; 5 nmol/mouse iv,13 ± 6 %IA/g
same,uptake in liver,[7]; 5 nmol/mouse iv,"1.9 ± 0.7 ^a,b %IA/g"
same,uptake in lung,[7]; 5 nmol/mouse iv,"0.9 ± 0.3 ^a,b %IA/g"
same,uptake in muscle,[7]; 5 nmol/mouse iv,0.17 ± 0.05 %IA/g
same,uptake in pancreas,[7]; 5 nmol/mouse iv,0.2 ± 0.1 %IA/g
same,uptake in salivary glands,[7]; 5 nmol/mouse iv,0.4 ± 0.1 %IA/g
same,uptake in small intestine,[7]; 5 nmol/mouse iv,0.9 ± 0.4 %IA/g
same,uptake in spleen,[7]; 5 nmol/mouse iv,1.0 ± 0.2 %IA/g
same,uptake in stomach,[7]; 5 nmol/mouse iv,0.4 ± 0.2 %IA/g
same,uptake in tumor,[7]; 5 nmol/mouse iv,"27 ± 4 ^a,b %IA/g"
same,tumor-to-blood ratio,[7]; 5 nmol/mouse,32 ± 11 ^b
same,tumor-to-bone ratio,[7]; 5 nmol/mouse,146 ± 57
same,tumor-to-kidney ratio,[7]; 5 nmol/mouse,2.3 ± 0.8 ^a
same,tumor-to-liver ratio,[7]; 5 nmol/mouse,"16 ± 7 ^a,b"
same,tumor-to-lung ratio,[7]; 5 nmol/mouse,33 ± 9 ^b
same,tumor-to-muscle ratio,[7]; 5 nmol/mouse,173 ± 47 ^b
same,tumor-to-pancreas ratio,[7]; 5 nmol/mouse,121 ± 46
same,tumor-to-salivary ratio,[7]; 5 nmol/mouse,69 ± 16 ^b
same,tumor-to-small intestine ratio,[7]; 5 nmol/mouse,35 ± 18 ^b
same,tumor-to-spleen ratio,[7]; 5 nmol/mouse,24 ± 7
same,tumor-to-stomach ratio,[7]; 5 nmol/mouse,86 ± 43 ^b
same,activity uptake in the gastrointestinal tract (with content),[7],over 40 %IA
same,"tumor uptake, fold higher compared with [99mTc]Tc-BQ0412 and [99mTc]Tc-BQ0413",[7],1.6 fold
